PMC5583658, “6,7-dimethoxy-1,2,3,4-tetrahydro-isoquinoline-3-carboxylic acid attenuates heptatocellular carcinoma in rats with NMR-based metabolic perturbations” (Future Science OA, 2017)
Entries after “also recorded” stand apart in the source; their conditions may differ.

Experiments:
[1] = system: diethylnitrosamine-induced hepatocarcinogenic rats; assay: Oxidative stress parameters (SOD, CAT, GSH, PC, MDA) in liver of DEN-induced HCC rats; type: in vivo, albino Wistar rats; conditions: for CAT / MDA / PC / Reduced GSH / SOD: 15 days, mean ± SD, n = 6
Description: (§1) All animals were randomly divided into five groups of six animals each. Drugs were suspended in 0.25% CMC, subjected to 28 days’ treatment orally and divided as follows: Group I: 0.25% CMC (2 ml/kg), Group II: DEN (8 mg/kg, intraperitoneally), Group III: DEN+5-fluorouracil (5-FU, 10 mg/kg, intraperitoneally), Group IV: DEN+M1 (50 mg/kg, orally) and Group V: DEN+M1 (100 mg/kg, orally). The procedure to induce HCC was adopted from a paper by Song et al. where it is shown that DEN produces HCC at 8 mg/kg intraperitoneal injection for 28 days to albino Wistar rats. After initial 1 week of adaptive inhabitation, all rats of group II–V were administered with DEN (8 mg/kg, intraperitoneally) for 28 days. After 28 days, 5-FU and M1 were given for 15 days as mentioned above for group III–V. At the end of the experimental period, animals were sacrificed by cervical decapitation and livers were dissected out immediately, rinsed in ice cold saline and stored at -20°C for further studies. The serum was collected, processed and stored for further analysis.
(§2) Liver function biomarkers like aspartate aminotransferase (AST), alanine aminotransferase (ALT) were also measured in serum using commercially available kit from Ebra Diagonesis Pvt Ltd, Germany. The oxidative parameters like superoxide dismutase (SOD), thiobarbituric acid reactive substances (TBARS), protein carbonyl (PC), SOD [14], tissue catalase (CAT) and glutathione (GSH) levels were estimated in liver tissue in the similar experiment. The total protein content of each sample was measured using the Bradford reagent and bovine serum albumin was used as a standard. Conjugated bilirubin and biliverdin in liver were measured as per the following procedure stated earlier in the literature with slight modifications.

[2] = system: Huh-7 cells; conditions: in vitro, MTT assay; M1 isolated from MP seeds; cited from earlier work
[3] = system: diethylnitrosamine-induced hepatocarcinogenic rats; assay: Bilirubin and biliverdin in liver of DEN-induced HCC rats; type: in vivo, albino Wistar rats; conditions: for Bilirubin / Biliverdin: 15 days, mean ± SD, n = 6
Description: as §1, §2

[4] = system: diethylnitrosamine-induced hepatocarcinogenic rats; assay: ALT and AST in plasma of DEN-induced HCC rats; type: in vivo, albino Wistar rats; conditions: 15 days, mean ± SD, n = 6
Description: as §1, §2

[5] = system: diethylnitrosamine-induced hepatocarcinogenic rats; assay: Histopathological studies of liver (hematoxylin and eosin); type: in vivo, albino Wistar rats; conditions: DEN+M1 50 and 100 mg/kg orally; 40X
Description: as §1
Histopathological studies were also performed to find out the morphological changes of liver cells after M1 administration. Liver tissues from each group were assessed for their morphological changes using hematoxylin and eosin staining. The tissues were preserved in 10% formalin overnight. […]

COc1cc2c(cc1OC)CC(C(=O)O)NC2 (centres unmarked) [M1, 6,7-dimethoxy-1,2,3,4-tetrahydro-isoquinoline-3-carboxylic acid]
CAT ([1]; DEN+M1 50 mg/kg orally): 6.51 ± 0.29 nM of H2O2/min/μg of protein | MDA ([1]; DEN+M1 50 mg/kg orally): 51.60 ± 1.009 nM/μg of protein | PC ([1]; DEN+M1 50 mg/kg orally): 0.46 ± 0.08 μM/μg of protein | Reduced GSH ([1]; DEN+M1 50 mg/kg orally): 5.40 ± 0.42 μM/μg of protein | SOD ([1]; DEN+M1 50 mg/kg orally): 5.92 ± 0.72 U/μg of protein | CAT ([1]; DEN+M1 100 mg/kg orally): 7.52 ± 0.7 nM of H2O2/min/μg of protein | MDA ([1]; DEN+M1 100 mg/kg orally): 45.20 ± 1.05 nM/μg of protein | PC ([1]; DEN+M1 100 mg/kg orally): 0.40 ± 0.02 μM/μg of protein | Reduced GSH ([1]; DEN+M1 100 mg/kg orally): 6.69 ± 0.30 μM/μg of protein | SOD ([1]; DEN+M1 100 mg/kg orally): 6.14 ± 0.17 U/μg of protein | GSH level ([1]; M1 50 mg/kg): ~5.40 µM | GSH level ([1]; M1 100 mg/kg): ~6.69 µM | SOD level as compared with normal group ([1]; M1-treated groups (toxic control 20–30%)): 70–80% | PC formation ([1]; M1-treated rats, text value (toxic control ∼0.96 μM)): ~0.40 µM | MDA formation ([1]; after M1 therapy, text value (toxic control approximately 98 nM)): ~50 nM | antiproliferative action on Huh-7 cells [2]: good antiproliferative action | Bilirubin ([3]; DEN+M1 50 mg/kg orally): 50.59 ± 1.39 ng/μg of protein | Biliverdin ([3]; DEN+M1 50 mg/kg orally): 21.19 ± 2.42 ng/μg of protein | Bilirubin ([3]; DEN+M1 100 mg/kg orally): 40.64 ± 3.47 ng/μg of protein | Biliverdin ([3]; DEN+M1 100 mg/kg orally): 16.95 ± 1.96 ng/μg of protein | biliverdin concentration ([3]; M1-treated rats, text value (toxic control ∼28 ng)): ~16 ng | ALT ([4]; DEN+M1 50 mg/kg orally): 88.4 ± 3.18 U/L | AST ([4]; DEN+M1 50 mg/kg orally): 47.73 ± 1.76 U/L | ALT ([4]; DEN+M1 100 mg/kg orally): 58.04 ± 2.84 U/L | AST ([4]; DEN+M1 100 mg/kg orally): 40.95 ± 1.35 U/L | liver histopathology [5]: normal tissue architecture was seen; also recorded: less ruptured and denatured cells (RC and DC) than toxic control
